Where “and” joins values, the source holds several entries; their conditions need not be identical. Identical values can stand only once. Like-named read-outs stand apart in the source and are kept apart here.
Assays:
229E PL2pro = 229E PL2pro (Human coronavirus 229E, UniProt P0C6X1); experiment: biochemical; design: inhibition of 229E PL2pro, UbRh dose-response replicate value: unit: %; conditions: Conc 98 µM
OC43 PLpro = OC43 PLpro (Human coronavirus OC43, UniProt P0C6X6); format: biochemical; design: unit not given here
OC43 PLpro, sequence (P0C6X6 1561-1872 limits assumed): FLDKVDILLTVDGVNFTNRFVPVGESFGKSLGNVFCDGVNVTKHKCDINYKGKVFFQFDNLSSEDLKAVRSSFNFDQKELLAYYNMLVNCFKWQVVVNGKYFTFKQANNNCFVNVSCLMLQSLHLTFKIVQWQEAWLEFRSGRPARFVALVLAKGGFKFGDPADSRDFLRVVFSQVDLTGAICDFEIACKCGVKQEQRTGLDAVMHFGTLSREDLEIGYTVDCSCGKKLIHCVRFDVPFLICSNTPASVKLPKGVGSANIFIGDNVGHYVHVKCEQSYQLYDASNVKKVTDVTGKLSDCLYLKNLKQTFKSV

MERS-CoV PLpro = MERS-CoV PLpro (Middle East respiratory syndrome-related coronavirus, UniProt K9N7C7); format: biochemical; design: unit: %
MERS-CoV PLpro, sequence (K9N7C7 1482-1803 limits assumed): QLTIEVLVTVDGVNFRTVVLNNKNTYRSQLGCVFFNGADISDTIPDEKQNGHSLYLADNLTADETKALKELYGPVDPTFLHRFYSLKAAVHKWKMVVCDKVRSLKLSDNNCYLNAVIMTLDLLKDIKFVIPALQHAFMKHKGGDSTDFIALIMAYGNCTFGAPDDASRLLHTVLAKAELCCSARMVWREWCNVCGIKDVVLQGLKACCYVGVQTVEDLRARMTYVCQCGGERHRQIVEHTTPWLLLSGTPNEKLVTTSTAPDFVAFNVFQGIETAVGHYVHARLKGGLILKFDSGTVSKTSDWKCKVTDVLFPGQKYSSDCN

SARS-CoV-2 PLpro = SARS-CoV-2 PLpro (Severe acute respiratory syndrome coronavirus 2, UniProt P0DTD1); experiment: cell-based; format: cell-based
USP21 = USP21 (Homo sapiens, UniProt Q9UK80); format: biochemical
USP21, sequence (Q9UK80 whole entry): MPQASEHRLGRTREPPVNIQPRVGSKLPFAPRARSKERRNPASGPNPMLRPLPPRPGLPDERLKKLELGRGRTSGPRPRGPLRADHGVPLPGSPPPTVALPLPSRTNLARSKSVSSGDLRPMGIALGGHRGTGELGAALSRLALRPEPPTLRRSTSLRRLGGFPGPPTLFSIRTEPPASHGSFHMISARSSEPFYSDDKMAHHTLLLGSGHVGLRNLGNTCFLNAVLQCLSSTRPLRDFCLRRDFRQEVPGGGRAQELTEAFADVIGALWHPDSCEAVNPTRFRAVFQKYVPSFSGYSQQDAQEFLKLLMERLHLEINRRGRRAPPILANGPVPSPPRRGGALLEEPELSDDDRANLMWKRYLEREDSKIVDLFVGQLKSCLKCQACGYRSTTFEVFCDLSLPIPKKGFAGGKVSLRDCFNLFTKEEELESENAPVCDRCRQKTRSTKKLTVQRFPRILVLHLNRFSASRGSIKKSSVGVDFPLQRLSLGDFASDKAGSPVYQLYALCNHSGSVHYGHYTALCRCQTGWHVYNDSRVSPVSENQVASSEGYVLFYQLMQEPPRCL

NL63 PL2pro = NL63 PL2pro (Human coronavirus NL63, UniProt P0C6X5); experiment: biochemical; design: inhibition of NL63 PL2pro, UbRh dose-response replicate value: unit: %
NL63 PL2pro, sequence (P0C6X5 1578-1876 limits assumed): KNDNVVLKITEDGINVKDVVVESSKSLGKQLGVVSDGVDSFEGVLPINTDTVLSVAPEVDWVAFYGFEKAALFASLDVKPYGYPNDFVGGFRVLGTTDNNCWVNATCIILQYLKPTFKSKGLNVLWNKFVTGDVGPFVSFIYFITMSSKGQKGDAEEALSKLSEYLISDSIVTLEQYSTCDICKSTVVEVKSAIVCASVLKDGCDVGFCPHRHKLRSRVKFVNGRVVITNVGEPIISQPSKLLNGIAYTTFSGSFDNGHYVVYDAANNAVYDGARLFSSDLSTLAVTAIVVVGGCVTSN

SARS-CoV PLpro = SARS-CoV PLpro (Severe acute respiratory syndrome coronavirus, UniProt P0C6X7); experiment: biochemical; design: inhibition of SARS-CoV PLpro, UbRh dose-response replicate value: unit: %

229E PL2pro, sequence (P0C6X1 1599-1905 limits assumed): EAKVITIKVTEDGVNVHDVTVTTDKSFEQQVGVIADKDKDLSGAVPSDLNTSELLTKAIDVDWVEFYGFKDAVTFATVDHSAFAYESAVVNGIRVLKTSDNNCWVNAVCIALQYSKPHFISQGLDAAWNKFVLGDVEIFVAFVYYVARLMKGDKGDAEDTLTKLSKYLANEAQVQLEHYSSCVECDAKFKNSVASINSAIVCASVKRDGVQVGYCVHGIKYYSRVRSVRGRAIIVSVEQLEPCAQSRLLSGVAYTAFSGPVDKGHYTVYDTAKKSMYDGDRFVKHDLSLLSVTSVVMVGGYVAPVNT

**Q.** Which results are given for `CO/N=C(/c1ccc2cc(OC)ccc2c1)[C@@H]1CCCN([C@H]2CC[C@@H](O)CC2)C1` [WEHI-P4]?
**A.** inhibition of 229E PL2pro, UbRh dose-response replicate value (229E PL2pro): 0.4544 and 1.371 and 3.91 and 5.222; inhibition of OC43 PLpro, UbRh dose-response replicate value (OC43 PLpro): -2.257 and 2.5807 and 4.868 and -0.1188 and -1.486 and 1.4475 and 10.2923 and 5.639 and 2.747 and 1.253 and 10.74 and 6.439 and 0.2359 and 1.058 and 1.648 and 0.7875 and 3.338 and 4.936 and 12.7203 and 5.2479; inhibition of OC43 PLpro, UbRh dose-response replicate value (OC43 PLpro; Conc 0.00498 µM): -1.019 and 4.2451 and 4.799 and 3.755; inhibition of OC43 PLpro, UbRh dose-response replicate value (OC43 PLpro; Conc 0.0149 µM): 3.285 and -5.104 and 7.176 and 0.6631; inhibition of OC43 PLpro, UbRh dose-response replicate value (OC43 PLpro; Conc 0.0448 µM): 1.599 and 3.82 and 6.435 and 3.684; inhibition of OC43 PLpro, UbRh dose-response replicate value (OC43 PLpro; Conc 3.63 µM): -4.48 and 0.0664 and 5.368 and 1.321; inhibition of OC43 PLpro, UbRh dose-response replicate value (OC43 PLpro; Conc 98 µM): 8.342 and 5.591 and 3.318 and 3.826; inhibition of MERS-CoV PLpro, UbRh dose-response replicate value (MERS-CoV PLpro): -2.626 and 0.2924 and -2.097 and -1.6716 and -0.7294 and -2.565 and -2.287 and 0.1452 and -3.504 and -2.889 and 1.578 and -2.541 and -3.292 and -3.12 and -0.8701 and -1.654 and -2.848 and 0.1888 and -1.626; inhibition of MERS-CoV PLpro, UbRh dose-response replicate value (MERS-CoV PLpro; Conc 0.00498 µM): 2.537 and 1.088 and 4.818 and -0.3578; inhibition of MERS-CoV PLpro, UbRh dose-response replicate value (MERS-CoV PLpro; Conc 0.0149 µM): 0.4714 and 1.45 and -3.026 and -3.057; inhibition of MERS-CoV PLpro, UbRh dose-response replicate value (MERS-CoV PLpro; Conc 0.0448 µM): 0.04351 and -1.536 and 0.7971 and -3.294; inhibition of MERS-CoV PLpro, UbRh dose-response replicate value (MERS-CoV PLpro; Conc 3.63 µM): -1.9557 and -1.916 and -5.199 and -5.618; inhibition of MERS-CoV PLpro, UbRh dose-response replicate value (MERS-CoV PLpro; Conc 98 µM): -3.229 and -4.988 and -1.6159 and -4.525; EC50 (SARS-CoV-2 PLpro): 310 nM; inhibition of USP21, UbRh dose-response replicate value (USP21): -14.237 and -11.9773 and -10.1399 and -17.0381 and -16.4868 and -21.6825 and -18.261 and -18.781 and -13.7423 and -13.1772 and -6.117 and -6.284 and -18.5884 and -21.057 and -7.715 and -13.3224; inhibition of USP21, UbRh dose-response replicate value (USP21; Conc 0.000249 µM): -14.4284 and -17.3988 and 5.209 and -15.2664; inhibition of USP21, UbRh dose-response replicate value (USP21; Conc 0.000745 µM): -25.0632 and -19.3083 and -9.965 and -17.0572; inhibition of USP21, UbRh dose-response replicate value (USP21; Conc 0.00675 µM): -16.8226 and -16.7878 and -5.942 and -9.8797; inhibition of USP21, UbRh dose-response replicate value (USP21; Conc 0.545 µM): -6.303 and -14.0881 and -12.3002 and -21.4576; inhibition of USP21, UbRh dose-response replicate value (USP21; Conc 1.64 µM): -4.137 and -7.939 and -11.2839 and -6.868; inhibition of USP21, UbRh dose-response replicate value (USP21; Conc 4.9 µM): -8.882 and -9.138; IC50 (NL63 PL2pro): 52000 nM; inhibition of NL63 PL2pro, UbRh dose-response replicate value (NL63 PL2pro): 29.2044 and 27.2154 and 12.8016 and 14.0355 and 13.7224 and -0.9824 and 3.459 and 0.1256 and -0.3351 and 1.574 and 1.516 and -0.1016 and -0.4149 and 0.8753 and 0.8707 and 2.0171 and 6.071; inhibition of NL63 PL2pro, UbRh dose-response replicate value (NL63 PL2pro; Conc 0.00498 µM): 2.403 and 7.259 and 5.7694 and -2.335; inhibition of NL63 PL2pro, UbRh dose-response replicate value (NL63 PL2pro; Conc 0.0149 µM): 1.231 and 5.289 and 2.0908 and -3.1147; inhibition of NL63 PL2pro, UbRh dose-response replicate value (NL63 PL2pro; Conc 0.0448 µM): 0.2539 and -0.387 and 1.95 and -0.1081; inhibition of NL63 PL2pro, UbRh dose-response replicate value (NL63 PL2pro; Conc 3.63 µM): 5.122 and 3.572 and 1.225 and -0.02217; inhibition of NL63 PL2pro, UbRh dose-response replicate value (NL63 PL2pro; Conc 98 µM): 57.8171 and 54.6906 and 55.1157; inhibition at 98 µM (NL63 PL2pro; Conc 98 µM, read-out: inhibition of NL63 PL2pro, UbRh dose-response replicate value): 58.4%; inhibition at […] (NL63 PL2pro; read-out: inhibition of NL63 PL2pro, UbRh dose-response replicate value): 34.7% and 15.8%; IC50 (SARS-CoV PLpro): 22 nM; inhibition of SARS-CoV PLpro, UbRh dose-response replicate value (SARS-CoV PLpro): 99.5179 and 99.8695 and 99.888 and 100.41 and 101.206 and 100.652 and 97.9154 and 99.4293 and 98.8906 and 95.7801 and 96.2197 and 96.0782 and 88.7276 and 90.1243 and 89.7578; inhibition of SARS-CoV PLpro, UbRh dose-response replicate value (SARS-CoV PLpro; Conc 0.00498 µM): 14.7599 and 17.411 and 20.7686; inhibition at 0.00498 µM (SARS-CoV PLpro; Conc 0.00498 µM, read-out: inhibition of SARS-CoV PLpro, UbRh dose-response replicate value): 16.2%; inhibition of SARS-CoV PLpro, UbRh dose-response replicate value (SARS-CoV PLpro; Conc 0.0149 µM): 37.3989 and 38.0308 and 36.4129; inhibition at 0.0149 µM (SARS-CoV PLpro; Conc 0.0149 µM, read-out: inhibition of SARS-CoV PLpro, UbRh dose-response replicate value): 35.6%; inhibition of SARS-CoV PLpro, UbRh dose-response replicate value (SARS-CoV PLpro; Conc 0.0448 µM): 69.6451 and 70.3349 and 71.2781; inhibition at 0.0448 µM (SARS-CoV PLpro; Conc 0.0448 µM, read-out: inhibition of SARS-CoV PLpro, UbRh dose-response replicate value): 67.2%; inhibition of SARS-CoV PLpro, UbRh dose-response replicate value (SARS-CoV PLpro; Conc 3.63 µM): 99.5331 and 99.9857 and 99.4982; inhibition at 3.63 µM (SARS-CoV PLpro; Conc 3.63 µM, read-out: inhibition of SARS-CoV PLpro, UbRh dose-response replicate value): 99.4%; inhibition of SARS-CoV PLpro, UbRh dose-response replicate value (SARS-CoV PLpro; Conc 98 µM): 99.3819 and 99.8238 and 100.106; inhibition at 98 µM (SARS-CoV PLpro; Conc 98 µM, read-out: inhibition of SARS-CoV PLpro, UbRh dose-response replicate value): 99.7%; inhibition at […] (SARS-CoV PLpro; read-out: inhibition of SARS-CoV PLpro, UbRh dose-response replicate value): 100% (2×) and 98.8% and 95.9% and 88.8%

Source: article PMC11969009 (Nature Communications, 2025)
